Reference: ChEMBL document CHEMBL1130724, “Synthesis and biological activity of [Tic5] didemnin B” (Bioorg Med Chem Lett, 1998)

Organism: Oryctolagus cuniculus
Test: Compound was tested for inhibitory effect on protein biosynthesis in rabbit reticulocyte lysates
Format: functional

Row | IC50 | Structure (SMILES)
1 | 2.68 µM | CC[C@H](C)[C@H]1NC(=O)[C@@H](NC(=O)[C@@H](CC(C)C)N(C)C(=O)C2CCCN2C(=O)[C@H](C)O)[C@@H](C)OC(=O)[C@@H]2Cc3ccccc3CN2C(=O)[C@@H]2CCCN2C(=O)[C@H](CC(C)C)NC(=O)[C@@H](C)C(=O)[C@H](C(C)C)OC(=O)C[C@@H]1O (some centres not stated)
2 | 9 µM | CC[C@H](C)[C@H]1NC(=O)[C@@H](NC(=O)[C@@H](CC(C)C)N(C)C(=O)C2CCCN2C(=O)[C@H](C)O)[C@@H](C)OC(=O)[C@H](CC(C)C)N(C)C(=O)[C@@H]2CCCN2C(=O)[C@H](CC(C)C)NC(=O)[C@@H](C)C(=O)[C@H](C(C)C)OC(=O)C[C@@H]1O (some centres not stated) [[N-ME LEU5] DIDEMNIN B]
